Values belong to the molecule of their own block, whether it stands above or below them.
Columns and labels:
U-87 MG [1] = assay: Antiproliferative activity against human U87MG cells assessed as reduction in cell viability after 48 hrs by MTT assay; format: functional, cell-based, U-87MG ATCC
HT-29 [2] = assay: Antiproliferative activity against human HT-29 cells assessed as reduction in cell viability after 48 hrs by MTT assay; format: functional, cell-based; details: HT-29, 48 h
A549 [3] = assay: Antiproliferative activity against human A549 cells assessed as reduction in cell viability after 48 hrs by MTT assay; format: functional, cell-based; details: A549, 48 h
PC-3 = assay: cells; format: functional, cell-based; details: Homo sapiens, PC-3, 48 h
Description: Antiproliferative activity against human PC3 cells assessed as reduction in cell viability after 48 hrs by MTT assay

HCT-116 = assay: Antiproliferative activity against human HCT116 cells assessed as reduction in cell viability after 48 hrs by MTT assay; format: functional, cell-based; details: HCT-116, 48 h
HBL-100 = assay: Antiproliferative activity against human HBL100 cells assessed as reduction in cell viability after 48 hrs by MTT assay; format: functional, cell-based; details: HBL-100, 48 h
U-87 MG [4] = assay: Antiproliferative activity against human U87 cells assessed as reduction in cell viability after 72 hrs by MTT assay; format: functional, cell-based, U-87MG ATCC
IMR-32 = assay: Antiproliferative activity against human IMR32 cells assessed as reduction in cell viability after 72 hrs by MTT assay; format: functional, cell-based; details: IMR-32, 72 h
MDA-MB-231 [5] = assay: Antiproliferative activity against human MDA-MB-231 cells assessed as reduction in cell viability after 72 hrs by MTT assay; format: functional, cell-based; details: MDA-MB-231, 72 h, read-out: IC50
HT-29 [6] = assay: Antiproliferative activity against human HT-29 cells assessed as reduction in cell viability after 72 hrs by MTT assay; format: functional, cell-based; details: HT-29, 72 h
MOLT-4 = assay: Antiproliferative activity against human MOLT4 cells assessed as reduction in cell viability after 72 hrs by MTT assay; format: functional, cell-based; details: MOLT-4, 72 h
MCF7 [7] = assay: Antiproliferative activity against human MCF7 cells assessed as reduction in cell viability after 72 hrs by MTT assay; format: functional, cell-based; details: MCF7, 72 h
Caco-2 = assay: Antiproliferative activity against human Caco2 cells assessed as reduction in cell viability after 72 hrs by MTT assay; format: functional, cell-based; details: Caco-2, 72 h
[8] = Cytotoxicity against dog MDCK1 cells assessed as reduction in cell viability after 72 hrs by MTT assay; format: cell-based; details: Canis lupus familiaris, MDCK1, 72 h
K562 = assay: Antiproliferative activity against human K562 cells assessed as reduction in cell viability after 72 hrs by MTT assay; format: functional, cell-based; details: K562, 72 h
HeLa [9] = assay: Antiproliferative activity against human HeLa cells assessed as reduction in cell viability after 72 hrs by MTT assay; format: functional, cell-based
MDA-MB-231 [10] = assay: Antiproliferative activity against human MDA-MB-231 cells by MTT assay; format: functional, cell-based
HEK293 [11] = assay: Cytotoxicity against HEK293 cells by MTT assay; format: cell-based; details: Homo sapiens
DU-145 [12] = assay: Antiproliferative activity against human DU145 cells assessed as reduction in cell viability after 48 hrs by MTT assay; format: functional, cell-based; details: DU-145, 48 h
MDA-MB-231 [13] = assay: Antiproliferative activity against human MDA-MB-231 cells assessed as reduction in cell viability after 48 hrs by MTT assay; format: functional, cell-based; details: MDA-MB-231, 48 h
HEK293 [14] = assay: Cytotoxicity against HEK293 cells assessed as reduction in cell viability after 48 hrs by MTT assay; format: cell-based; details: Homo sapiens, HEK293, 48 h
[15] = Antiproliferative activity against human SMCC7721 cells assessed as reduction in cell viability after 48 hrs by MTT assay; format: functional, cell-based
HL-60 = assay: Antiproliferative activity against human HL60 cells assessed as reduction in cell viability after 48 hrs by MTT assay; format: functional, cell-based; details: HL-60, 48 h
SW480 = assay: Antiproliferative activity against human SW480 cells assessed as reduction in cell viability after 48 hrs by MTT assay; format: functional, cell-based; details: SW480, 48 h
C2C12 = assay: Cytotoxicity against mouse C2C12 cells assessed as reduction in cell viability after 48 hrs by MTT assay; format: cell-based; details: C2C12, 48 h
MCF7 [16] = assay: Antiproliferative activity against human MCF7 cells assessed as reduction in cell viability after 48 hrs by MTT assay; format: functional, cell-based; details: MCF7, 48 h
DU-145 [17] = assay: Antiproliferative activity against human DU145 cells by MTT assay; format: functional, cell-based
MCF7 [18] = assay: cells; format: functional, cell-based; details: Homo sapiens
Description: Antiproliferative activity against human MCF7 cells by MTT assay

HeLa [19] = assay: Antiproliferative activity against human HeLa cells by MTT assay; format: functional, cell-based
A549 [20] = assay: cells; format: functional, cell-based; details: Homo sapiens
Description: Antiproliferative activity against human A549 cells by MTT assay

IC50 (U-87 MG [1]): 0.86 to 3.71 µM | IC50 (HT-29 [2]): 0.86 to 3.71 µM | IC50 (A549 [3]): 0.86 to 3.71 µM | IC50 (PC-3): 0.86 to 3.71 µM
SMILES: COc1ccc(Cn2cc(C(=O)c3cn(-c4ccccc4)nc3-c3ccc(Cl)cc3)nn2)cc1OC

IC50 (HCT-116): 10.8 to 13.3 µM | IC50 (HT-29 [2]): 10.8 to 13.3 µM | IC50 (A549 [3]): 10.8 to 13.3 µM
SMILES: C[C@@H]1CC[C@@]2(OC1)O[C@H]1C[C@H]3[C@@H]4CC=C5C[C@@H](O)CC[C@]5(C)[C@H]4CC[C@]3(C)[C@H]1[C@@H]2C [DISOGENIN]
IC50 (HBL-100): 10.8 to 13.3 µM

IC50 (U-87 MG [4]): 0.042 to 0.478 µM | IC50 (MDA-MB-231 [5]): 0.042 to 0.478 µM
SMILES: Cc1n[nH]c(=O)c2c1c1cc(F)ccc1n2Cc1cn(C2CCCCC2)nn1
IC50 (IMR-32): 0.042 to 0.478 µM

IC50 (HCT-116): 5.16 to 9.44 µM | IC50 (HT-29 [2]): 5.16 to 9.44 µM | IC50 (A549 [3]): 5.16 to 9.44 µM
SMILES: C[C@@H]1CC[C@@]2(OC1)O[C@H]1C[C@H]3[C@@H]4CC=C5C[C@@H](OCc6cn(-c7ccccc7C#N)nn6)CC[C@]5(C)[C@H]4CC[C@]3(C)[C@H]1[C@@H]2C
IC50 (HBL-100): 5.16 to 9.44 µM

IC50 (HT-29 [6]): 6.8 to 10.4 µM | IC50 (MOLT-4): 6.8 to 10.4 µM | IC50 (MCF7 [7]): 6.8 to 10.4 µM
SMILES: O=C1C=C(NCc2cn(Cc3ccc(C(F)(F)F)cc3)nn2)C(=O)c2ccccc21

IC50 (Caco-2): 9.7 to 81.9 µM | IC50 (K562): 9.7 to 81.9 µM | IC50 (HeLa [9]): 9.7 to 81.9 µM
SMILES: COc1cccc(-c2cn(Cc3cc(=O)oc4cc(O)c(O)cc34)nn2)c1
IC50 [8]: 36.7 to 46 µM

IC50 (U-87 MG [1]): 0.86 to 3.71 µM | IC50 (HT-29 [2]): 0.86 to 3.71 µM | IC50 (A549 [3]): 0.86 to 3.71 µM | IC50 (PC-3): 0.86 to 3.71 µM
SMILES: COc1ccc(Cn2cc(C(=O)c3cn(-c4ccccc4)nc3-c3ccc(F)cc3)nn2)cc1OC

IC50 (MDA-MB-231 [10]): 12 µM
SMILES: COC(=O)c1ccc(-n2nc(N)c(C(=O)NCCNC(=O)c3nn(-c4ccc(C(=O)OC)cc4)nc3N)n2)cc1
IC50 (HEK293 [11]): > 50 µM

IC50 (DU-145 [12]): 0.51 to 3.98 µM | IC50 (MDA-MB-231 [13]): 0.51 to 3.98 µM | IC50 (HCT-116): 0.51 to 3.98 µM | IC50 (A549 [3]): 0.51 to 3.98 µM
SMILES: O=C(c1cn(Cc2ccc(-c3ccc(Cl)cc3)cc2)nn1)c1c(-c2ccccc2)nc2ccccn12
IC50 (HEK293 [14]): 91.2 µM

IC50 (A549 [3]): 0.43 to 30.5 µM | IC50 (HL-60): 0.43 to 30.5 µM | IC50 (SW480): 0.43 to 30.5 µM
SMILES: COc1cc([C@@H]2c3cc4c(cc3[C@H](n3cc(COCC(COCc5cn([C@H]6c7cc8c(cc7[C@@H](c7cc(OC)c(O)c(OC)c7)[C@H]7C(=O)OC[C@@H]76)OCO8)nn5)O[C@@H]5O[C@H](COC(C)=O)[C@@H](OC(C)=O)[C@H](OC(C)=O)[C@H]5OC(C)=O)nn3)[C@H]3COC(=O)[C@H]23)OCO4)cc(OC)c1O (some centres not stated)
IC50 [15]: 0.43 to 30.5 µM

IC50 (HT-29 [6]): 6.8 to 31.7 µM | IC50 (MOLT-4): 6.8 to 31.7 µM | IC50 (MCF7 [7]): 6.8 to 31.7 µM
SMILES: CC(C)(C)c1ccc(Cn2cc(CNC3=CC(=O)c4ccccc4C3=O)nn2)cc1

IC50 (Caco-2): 9.7 to 81.9 µM | IC50 (K562): 9.7 to 81.9 µM | IC50 (HeLa [9]): 9.7 to 81.9 µM
SMILES: COc1ccccc1-c1cn(Cc2cc(=O)oc3cc(O)c(O)cc23)nn1
IC50 [8]: 36.7 to 46 µM

IC50 (HCT-116): 7.1 to 13.4 µM | IC50 (MCF7 [16]): 7.1 to 13.4 µM
SMILES: O=C(Nc1cccc(-n2cc(Oc3ccc(-c4cc(-c5ccc(Oc6cn(-c7cccc(NC(=O)[C@@H]8CCCN8)c7)nn6)cc5)cc(-c5ccc(Oc6cn(-c7cccc(NC(=O)[C@@H]8CCCN8)c7)nn6)cc5)c4)cc3)nn2)c1)[C@@H]1CCCN1
IC50 (C2C12): > 40 µM

IC50 (MDA-MB-231 [10]): 11.2 µM | IC50 (DU-145 [17]): 10.9 to 18.6 µM | IC50 (MCF7 [18]): 10.9 to 18.6 µM | IC50 (HeLa [19]): 10.9 to 18.6 µM | IC50 (A549 [20]): 10.9 to 18.6 µM
SMILES: CC/C(=C(\c1ccccc1)c1ccc(OCCN(C)C)cc1)c1ccccc1 [TAMOXIFEN]
IC50 (HEK293 [11]): > 50 µM

IC50 (Caco-2): 9.7 to 81.9 µM | IC50 (K562): 9.7 to 81.9 µM | IC50 (HeLa [9]): 9.7 to 81.9 µM
SMILES: COc1ccc(-c2cn(Cc3cc(=O)oc4cc(O)c(O)cc34)nn2)cc1
IC50 [8]: 36.7 to 46 µM
